The values below are quoted from earlier work in US20070077261A1 (priority 2005, published 2007).

For this data set the following is noted: amount dissolving in 2 ml of glycerin; The Merck Index, 11th Edition.

In the case of `NC(N)=O` [urea], the “solubility of urea in glycerin” value is 1 gram.
